Results: patent US6916802B2, “Amino ceramide-like compounds and therapeutic methods of use” (Genzyme Corporation, priority 2002, dated 2005)
“And” between values parts separate entries of the source, which are not always exact repeats. Equal entries are not always repeated. Marks after values point to notes of the source that are not given here. One block for each molecule: values may come before it.

What was measured:
[1] = tested on: MCF-7 breast carcinoma cells; test: Tumor cell growth in vitro (sulforhodamine B), MCF-7; format: cell-based, human; details: Homo sapiens, MCF7, rounded off to one digit, read-out: Inhibition of tumor cell growth in vitro, IC50
Procedure: (§1) Growth of cell lines. Comparisons of different inhibitors with regard to suppression of human cancer cell growth were made by the University of Michigan Cancer Center in vitro Drug Evaluation Core Laboratory. MCF-7 breast carcinoma cells, HT-29 colon adenocarcinoma cells, H-460 lung large cell carcinoma cells, and 9L brain gliosarcoma cells were grown in RPMI 1640 medium with 5% fetal bovine serum, 2 mM glutamine, 50 units/ml of penicillin, […] of streptomycin, and 0.1 mg/ml of neomycin. UMSCC-10A head and neck squamous carcinoma cells were grown in minimal essential medium with Earle salts and the same supplements. Medium components were from Sigma Chemical Co. Cells were plated in 96-well microtiter plates (1000 cells/well for H-460 and 9L cells, and 2000 cells/well for the other lines), and the test compounds were added 1 day later. The stock inhibitor solutions, 2 mM in 2 mM BSA, were diluted with different amounts of additional 2 mM BSA, then each solution was diluted 500-fold with growth medium to obtain the final concentrations indicated in the Figures and Tables.
(§2) Five days after plating the H-460 and 9L cells, or 6 days for the other lines, cell growth was evaluated by staining the adhering cells with sulforhodamine B and measuring the absorbance at 520 nm (Skehan, P. et al., “New Colorimetric Cytotoxicity Assay for Anticancer-Drug Screening,” J. Natl. Cancer Inst., 82:1107-1112 (1990)). The absorbance of the treated cultures is reported as percent of that of control cultures, to provide an estimate of the fraction of the cells that survived, or of inhibition of growth rate.

[2] = tested on: GlcCer synthase of MDCK cell homogenates; test: Inhibition of ceramide glucosyltransferase (GlcCer synthase) of MDCK cell homogenates; format: biochemical, canine; details: triplicate ± SD, samples partly isomer mixtures
Procedure: Assay of sphingolipid enzymes. The inhibitors were evaluated for their effectiveness against the GlcCer synthase of MDCK cell homogenates by incubation in a thermostatted ultrasonic bath (Radin N. S. et al., “Ultrasonic Baths as Substitutes for Shaking Incubator Baths,” Enzyme, 45:67-70 (1991)) with octanoyl sphingosine and uridinediphospho[^3H]glucose (Shukla, G. S. et al., “Glucosylceramide Synthase of Mouse Kidney: Further Characterization and Improved Assay Method,” Arch. Biochem. Biophys., 283:372-378 (1990)). The lipoidal substrate (85 μg) was added in liposomes made from 0.57 mg dioleoylphosphatidylcholine and 0.1 mg of Na sulfatide. Confluent cells were washed, then homogenized with a micro-tip sonicator at 0° C. for 3×30 sec; ˜0.2 mg of protein was used in each assay tube. In the case of the aromatic inhibitors, the test compound was simply evaporated to dryness from solution in the incubation tube. […] The aliphatic inhibitors, which appeared to be less soluble in water, were added as part of the substrate liposomes.

[3] = tested on: H-460 lung large cell carcinoma cells; test: Tumor cell growth in vitro (sulforhodamine B), H-460; format: cell-based, human; details: Homo sapiens, NCI-H460, rounded off to one digit, read-out: Inhibition of tumor cell growth in vitro, IC50
Procedure: as §1, §2

[4] = tested on: HT-29 colon adenocarcinoma cells; test: Tumor cell growth in vitro (sulforhodamine B), HT-29; format: cell-based, human; details: Homo sapiens, rounded off to one digit, read-out: Inhibition of tumor cell growth in vitro, IC50
Procedure: as §1, §2

[5] = tested on: UMSCC-10A head and neck squamous carcinoma cells; test: Tumor cell growth in vitro (sulforhodamine B), UMSCC-10A; format: cell-based, human; details: Homo sapiens, rounded off to one digit, read-out: Inhibition of tumor cell growth in vitro, IC50
Procedure: as §1, §2

[6] = tested on: 9L brain gliosarcoma cells; test: Tumor cell growth in vitro (sulforhodamine B), 9L; format: cell-based
Procedure: as §1, §2

[7] = molecular target: T1, 1-O-acylceramide synthase (Canis lupus familiaris, UniProt Q6XPZ3); test: 1-O-acylceramide synthase (transacylase) assay; format: biochemical; details: D-threo enantiomers, FIG. 12
T1 construct: the 1-O-acylceramide synthase assayed in the cellular homogenates; endogenous in cells; host or cells: cellular homogenates (MDCK, from context)
T1 sequence (Q6XPZ3 32-408): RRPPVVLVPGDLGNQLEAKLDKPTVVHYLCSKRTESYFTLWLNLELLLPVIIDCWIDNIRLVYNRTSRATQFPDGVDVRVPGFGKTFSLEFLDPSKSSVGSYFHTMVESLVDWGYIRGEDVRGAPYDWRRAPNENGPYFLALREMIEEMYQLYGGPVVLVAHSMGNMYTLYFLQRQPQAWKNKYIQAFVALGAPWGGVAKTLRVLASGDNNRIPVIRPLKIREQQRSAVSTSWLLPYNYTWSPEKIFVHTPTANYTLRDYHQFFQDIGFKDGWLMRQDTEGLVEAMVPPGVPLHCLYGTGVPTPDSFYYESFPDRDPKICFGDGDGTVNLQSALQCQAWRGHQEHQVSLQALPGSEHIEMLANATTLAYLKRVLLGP
Source text: Distinguishing Between Inhibition of GlcCer Synthase and 1-O-acylceramide Synthase Inhibition. […] An alternative pathway for ceramide metabolism was subsequently identified, the acylation of ceramide at the 1-hydroxyl position, which was blocked by both threo and erythro diastereomers of PDMP. The specificities of D-threo-P4, D-threo-3′,4′-ethylenedioxy-P4, and D-threo-(4′-hydroxy)-P4 for GlcCer synthase were studied by assaying the transacylase.

[8] = tested on: MDCK cells; test: GlcCer, ceramide and diradylglycerol content of treated MDCK cells (Specific Example 2); format: cell-based, canine; details: for GlcCer lost from the cells (depletion): 11.3 nM inhibitor
Procedure: Cell culture and lipid extraction. One half million of MDCK cells were seeded into 10 cm style dish containing 8 ml serum free DMEM supplemented medium. Shayman, J. A. et al., J. Biol. Chem., 265:12135-12138 (1990). […] The GlcCer synthase inhibitors were added into the medium as a one to one complex with delipidated BSA. Abe, A. et al., J. Lipid. Res., 36:611-621 (1995); Abe, A. et al., Biochim. Biophys. Acta, 1299:331-341 (1996). The cells were incubated for 24 h or 48 h with the inhibitors. After the incubation, the cells were washed twice with 8 ml of cold PBS and fixed with 2 ml of cold methanol. The fixed cells were scraped and transferred to a glass tube. Another one ml of methanol was used to recover the remaining cells in the dish.
Three ml of chloroform was added to the tube and briefly sonicated using a water bath type sonicator. After centrifugation at 800 g for 5 min, the supernatant was transferred into another glass tube. The residues were reextracted with chloroform/methanol (1/1). After the centrifugation, the resultant supernatant was combined with the first one. The residues were air-dried and kept for protein analysis. Adding 0.9% NaCl to the supematant combined, the ratio of chloroform/methanol/aqueous was adjusted to 1/1/1. After centrifugation 800 g for 5 min, the upper layer was discarded. Methanol/water (1/1) with the same amount of volume of the lower layer was used to wash. The resultant lower layer was transferred into a small glass tube and dried down under a stream of nitrogen gas. A part of the lipid was used for lipid phosphate determination. Ames, B. N., Methods Enzymol., 8:115-118 (1966). The remainder was analyzed using HPTLC (Merck).
In order to determine whether inhibition of 1-O-acylceramide synthase was the basis for inhibitor mediated ceramide accumulation, the ceramide and diradylglycerol levels of MDCK cells treated D-threo-P4, D-threo-3′,4′-ethylenedioxy-P4, and D-threo-(4′-hydroxy)-P4 were measured (Table 9). MDCK cells (5×10^5) were seeded into a 10 cm dish and incubated for 24 h. Following the incubation, the cells were treated for 24 or 48 h with or without P4 or the phenyl substitute homologues. Both ceramide and diradylglycerol contents were determined by the method of Preis, J. et al., J. Biol. Chem., 261:8597-8600 (1986). GlcCer content was measured densitometrically by a video camera and use of NIH image 1.49. Significant increases in both ceramide and diradylglycerol occurred only in cells treated with inhibitor concentrations in excess of 1 mM. This was approximately 30-fold lower than the concentration required for inhibition of the 1-O-acylceramide synthase assayed in the cellular homogenates. […] Abe, A. et al., Biochim. Biophys. Acta, 1299:331-341 (1996).
(§3) Effects of D-threo-P4, D-threo4′-hydroxy-P4 and D-threo-3,4′-ethylenedioxy-P4 on GlcCer Synthesis and Cell Growth. To confirm the cellular specificity of D-threo-3′,4′-ethylenedioxy-P4 and D-threo-(4′-hydroxy)-P4 as compared to D-threo-P4, MDCK cells were treated with different concentrations of the inhibitors. The total protein amount in each sample was determined by the BCA method. In GlcCer analysis, lipid samples and standard lipids were applied to the same HPTLC plate pre-treated with borate and developed in a solvent consisting of C/M/W (63/24/4). The level of GlcCer was estimated from a standard curve obtained using a computerized image scanner. The values were normalized on the basis of the phospholipid content. The results are shown in FIG. 7, wherein each bar is the average values from three dishes, with error bars corresponding to one standard deviation. In the control, the total protein and GlcCer were 414±47.4 μg/dish and 24.3±1.97 ng/nmol phosphate, respectively.

[9] = tested on: MDCK cells; test: Cell growth of treated MDCK cells, total protein (Specific Example 2); format: cell-based, canine
Procedure: Cell culture and lipid extraction. One half million of MDCK cells were seeded into 10 cm style dish containing 8 ml serum free DMEM supplemented medium. Shayman, J. A. et al., J. Biol. Chem., 265:12135-12138 (1990). After 24 h the medium was replaced with 8 ml of the medium containing 0, 11.8, 118 or 1180 nM D-t-P4, D-t-3′,4′-ethylenedioxy-P4 or D-4′-hydroxy)-P4. The GlcCer synthase inhibitors were added into the medium as a one to one complex with delipidated BSA. Abe, A. et al., J. Lipid. Res., 36:611-621 (1995); Abe, A. et al., Biochim. Biophys. Acta, 1299:331-341 (1996). The cells were incubated for 24 h or 48 h with the inhibitors. After the incubation, the cells were washed twice with 8 ml of cold PBS and fixed with 2 ml of cold methanol. The fixed cells were scraped and transferred to a glass tube. Another one ml of methanol was used to recover the remaining cells in the dish.
as §3

[10] = substituent of phenyl group; estimated from the Table in Hogberg et al.; cited from earlier work

IC50 [1]: 2000 nM | IC50 [3]: 1000 nM | IC50 [4]: 1000 nM | IC50 [5]: 1000 nM | IC50 ([6]; 9L, rounded off to one digit, read-out: Inhibition of tumor cell growth in vitro, IC50): 1000 nM
Structure (SMILES): CCCCCCCCCCCCCCCC(=O)NC(CN1CCCC1)C(O)c1ccccc1 (racemic) [BML-119, 1-phenyl-2-palmitoylamino-3-pyrrolidino-1-propanol]
Inhibition at 5 μM ([2]; 5 μM inhibitor, 5 µM): 50% and 51 ± 2.3^e % and 49 ± 0.8^f % | % Inhibition at 80 μM ([2]; 80 μM inhibitor, 80 µM): 94 ± 1.4^b % and 97 ± 0.1^c % and 96 ± 0.1^d % | activity at 1 µM ([6]; 9L cells, 1 μM inhibitor, read-out: growth, % of control growth): 71% | activity at 3 µM ([6]; 9L cells, 3 μM inhibitor, read-out: growth, % of control growth): 3%

activity in blocking 1-O-acylceramide synthase [7]: comparable activity
Structure (SMILES): CCCCCCCCCCCCCCCC(=O)N[C@H](CN1CCCC1)[C@H](O)c1ccc2c(c1)OCCO2 [D-threo-3′,4′-ethylenedioxy-P4, D-t-3′,4′-ethylenedioxy-1-phenyl-2-palmitoylamino-3-pyrrolidino-1-propanol]
GlcCer lost from the cells (depletion) [8]: ~78% | GlcCer lost from the cells (depletion) ([8]; listed as D-t-3′,4′-ethylenedioxy-P4): 80% | Ceramide (pmol/nmol phospholipids) ([8]; 113 nM, 24 h): 5.21 pmol/nmol phospholipids | level of ceramide versus untreated cells ([8]; 1130 nM): two times higher | total protein versus untreated cells ([9]; 1130 nM): significant decrease | total protein content versus untreated cells ([9]; 11.3 or 113 nM): little difference

activity in blocking 1-O-acylceramide synthase [7]: comparable activity
Structure (SMILES): CCCCCCCCCCCCCCCC(=O)N[C@H](CN1CCCC1)[C@H](O)c1ccccc1 [D-threo-P4]
σ + π [10]: 0.00 | GlcCer lost from the cells (depletion) [8]: 27% | Ceramide (pmol/nmol phospholipids) ([8]; 11.3 nM, 24 h): 5.33 ± 0.41 pmol/nmol phospholipids | Diradylglycerol (pmol/nmol phospholipids) ([8]; 11.3 nM, 24 h): 24.1 ± 1.66 pmol/nmol phospholipids | Ceramide (pmol/nmol phospholipids) ([8]; 11.3 nM, 48 h): 5.68 ± 0.27 pmol/nmol phospholipids | Diradylglycerol (pmol/nmol phospholipids) ([8]; 11.3 nM, 48 h): 29.6 ± 0.73 pmol/nmol phospholipids | Ceramide (pmol/nmol phospholipids) ([8]; 113 nM, 24 h): 4.64 ± 0.38 pmol/nmol phospholipids | Diradylglycerol (pmol/nmol phospholipids) ([8]; 113 nM, 24 h): 26.6 ± 1.56 pmol/nmol phospholipids | Ceramide (pmol/nmol phospholipids) ([8]; 113 nM, 48 h): 7.08 ± 0.29 pmol/nmol phospholipids | Diradylglycerol (pmol/nmol phospholipids) ([8]; 113 nM, 48 h): 33.0 ± 2.63 pmol/nmol phospholipids | Ceramide (pmol/nmol phospholipids) ([8]; 1130 nM, 24 h): 5.10 ± 0.35 pmol/nmol phospholipids | Diradylglycerol (pmol/nmol phospholipids) ([8]; 1130 nM, 24 h): 27.1 ± 0.67 pmol/nmol phospholipids | Ceramide (pmol/nmol phospholipids) ([8]; 1130 nM, 48 h): 9.74 ± 0.53 pmol/nmol phospholipids | Diradylglycerol (pmol/nmol phospholipids) ([8]; 1130 nM, 48 h): 38.8 ± 1.11 pmol/nmol phospholipids
